Test results: ChEMBL document CHEMBL1132395, “Inhibition of herpes proteases and antiviral activity of 2-substituted thieno[2,3-d]oxazinones” (Bioorg Med Chem Lett, 1999)
Active and inactive are the calls of the source. The rule behind the calls is not given here.

Assays:
Human alphaherpesvirus 2 [1] = assay: Inhibitory activity against herpes simplex virus type 2 (HSV-2) protease was determined using quenched fluorescence assay (IA=inactive up to 20 uM); type: functional, organism-based
Cytomegalovirus [2] = assay: Inhibitory activity against cytomegalovirus (CMV) protease was determined using quenched fluorescence assay (IA=inactive up to 20 uM); type: functional, organism-based
[3] = test system: Varicella zoster virus protease (Varicella-zoster virus); assay: Inhibitory activity against Varicella Zoster Virus (VZV) protease was determined using quenched fluorescence assay (IA=inactive up to 20 uM)
MRC5 = assay: Cytotoxicity by using MRC-5 cell culture assay (XTT); type: functional; conditions: Homo sapiens, read-out: TC50 (the source's name)
Human alphaherpesvirus 2 [4] = assay: Cytotoxicity against herpes simplex virus type 2 (HSV-2) infected cells by pulse chase (PC) assay; type: functional
Human alphaherpesvirus 2 [5] = assay: Cytotoxicity in herpes simplex virus type 2 (HSV-2); NI= no inhibition; type: functional, organism-based
[6] = target: T1, Capsid scaffolding protein (Human herpesvirus 2 (strain HG52) (HHV-2) (Human herpes simplex virus2), UniProt P89449); assay: Inhibitory activity against herpes simplex virus type 2 (HSV-2) protease was determined using quenched fluorescence assay
T1 sequence (P89449 whole entry): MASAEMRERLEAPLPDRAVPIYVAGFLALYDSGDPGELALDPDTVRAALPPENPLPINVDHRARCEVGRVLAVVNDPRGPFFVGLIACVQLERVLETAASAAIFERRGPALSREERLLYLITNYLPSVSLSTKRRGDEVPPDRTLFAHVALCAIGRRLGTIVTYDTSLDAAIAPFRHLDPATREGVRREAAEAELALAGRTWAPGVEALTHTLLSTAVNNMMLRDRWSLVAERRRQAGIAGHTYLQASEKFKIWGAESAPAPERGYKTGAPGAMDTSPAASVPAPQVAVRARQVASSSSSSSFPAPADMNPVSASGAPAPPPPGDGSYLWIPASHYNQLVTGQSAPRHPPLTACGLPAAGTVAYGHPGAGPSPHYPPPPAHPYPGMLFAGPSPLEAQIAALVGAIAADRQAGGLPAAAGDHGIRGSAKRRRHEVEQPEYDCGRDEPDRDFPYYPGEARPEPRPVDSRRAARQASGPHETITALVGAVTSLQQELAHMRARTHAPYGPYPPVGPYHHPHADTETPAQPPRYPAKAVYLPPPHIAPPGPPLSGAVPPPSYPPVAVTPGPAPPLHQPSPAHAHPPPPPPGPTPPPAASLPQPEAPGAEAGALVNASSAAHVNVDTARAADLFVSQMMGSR

Cytomegalovirus [7] = assay: Inhibitory activity against cytomegalovirus (CMV) herpes was determined using quenched fluorescence assay; type: functional, organism-based; conditions: Human betaherpesvirus 5
Human alphaherpesvirus 3 = assay: Inactivation rate against Varicella Zoster Virus (VZV) was determined; type: functional
Human alphaherpesvirus 2 [8] = assay: Inactivation rate against herpes simplex type 2 (HSV-2) was determined; type: functional
Human alphaherpesvirus 2 [9] = assay: Cytotoxicity in herpes simplex virus type 2 (HSV-2); type: functional
Human alphaherpesvirus 2 [10] = assay: Cytotoxicity against herpes simplex virus type 2 (HSV-2); type: functional
Cytomegalovirus [11] = assay: Inhibitory activity against cytomegalovirus (CMV) herpes protease was determined using quenched fluorescence assay; type: functional, organism-based; conditions: Human betaherpesvirus 5
Human alphaherpesvirus 2 [12] = assay: Inhibitory activity against herpes simplex virus type 2 (HSV-2) herpes protease was determined using quenched fluorescence assay; type: functional, organism-based

In the case of Cc1csc2nc([C@H](C)NC/C=C/c3ccccc3)oc(=O)c12, the IC50 (Human alphaherpesvirus 2 [1]) is reported as “No inhibition”, the IC50 (Cytomegalovirus [2]) is reported as “No inhibition” and the IC50 [3] is reported as “No inhibition”.

For Cc1csc2nc([C@H](C)NC(=O)/C=C/c3ccc(O)cc3Cl)oc(=O)c12, the CC50 (MRC5) was 100000 nM, the TC50 (Human alphaherpesvirus 2 [4]) was 56000 nM and the PC50 (Human alphaherpesvirus 2 [5]) was “inactive”. For the same molecule, the IC50 [6] was 230 nM and the IC50 (Cytomegalovirus [7]) was 190 nM.

Work on Cc1csc2nc([C@H](C)NC(=O)/C=C/c3ccsc3Br)oc(=O)c12 yielded an IC50 [6] of 200 nM.

Molecule Cc1csc2nc([C@H](C)NC(=O)/C=C/c3ccsc3)oc(=O)c12 has an IC50 [6] of 330 nM and an IC50 (Cytomegalovirus [7]) of 380 nM.

Cc1csc2nc([C@H](C)NC(=O)/C=C/c3ccccc3Br)oc(=O)c12 showed an IC50 [6] of 480 nM.

Cc1csc2nc([C@H](C)NC(=O)/C=C/c3c(Cl)cccc3Cl)oc(=O)c12 was tested, and the “K obs / 1” value (Human alphaherpesvirus 3) was 33000 M⁻¹ s⁻¹, the IC50 [6] was 1970 nM and the “K obs / 1” value (Human alphaherpesvirus 2 [8]) was 33000 M⁻¹ s⁻¹.

Molecule Cc1csc2nc([C@H](C)NC(=O)/C=C/c3sccc3Br)oc(=O)c12 has an IC50 [6] of 250 nM.

In the case of Cc1csc2nc([C@H](C)NC(=O)/C=C/c3ccccc3Cl)oc(=O)c12, the IC50 [6] is reported as 610 nM.

In the case of Cc1csc2nc([C@H](C)NC(=O)/C=C/c3c(F)cccc3Cl)oc(=O)c12, the IC50 [6] is reported as 520 nM.

Molecule Cc1csc2nc([C@H](C)NC(=O)/C=C/c3ccc(Br)o3)oc(=O)c12 has an IC50 [6] of 490 nM.

COc1cccc(OC)c1/C=C/C(=O)N[C@@H](C)c1nc2scc(C)c2c(=O)o1 showed an IC50 [6] of 1300 nM.

In the case of Cc1csc2nc([C@H](C)NC(=O)/C=C/c3ccc(C=O)cc3)oc(=O)c12, the IC50 [6] is reported as 530 nM.

Molecule Cc1ccc(/C=C/C(=O)N[C@@H](C)c2nc3scc(C)c3c(=O)o2)s1 has an IC50 [6] of 650 nM.

Work on Cc1csc2nc([C@H](C)NC(=O)/C=C/c3cccn3C)oc(=O)c12 yielded an IC50 [6] of 1000 nM.

In the case of Cc1cc(/C=C/C(=O)N[C@@H](C)c2nc3scc(C)c3c(=O)o2)c(C)s1, the “k obs / 1” value (Human alphaherpesvirus 3) is reported as 76000 M⁻¹ s⁻¹, the PC50 (Human alphaherpesvirus 2 [9]) is reported as 12 µM and the CC50 (MRC5) is reported as 180000 nM. For the same molecule, the TC50 (Human alphaherpesvirus 2 [4]) was 130000 nM, the IC50 [6] was 190 nM and the “K obs / 1” value (Human alphaherpesvirus 2 [8]) was 53000 M⁻¹ s⁻¹.

Cc1csc2nc([C@H](C)NC(=O)/C=C/c3ccc(Cl)s3)oc(=O)c12 was tested, and the “K obs / 1” value (Human alphaherpesvirus 3) was 60000 M⁻¹ s⁻¹, the PC50 (Human alphaherpesvirus 2 [9]) was 18 µM and the CC50 (MRC5) was 130000 nM. The TC50 (Human alphaherpesvirus 2 [4]) was greater than 250000 nM, the IC50 [6] was 210 nM and the “K obs / 1” value (Human alphaherpesvirus 2 [8]) was 58000 M⁻¹ s⁻¹.

With CCOc1ccccc1/C=C/C(=O)N[C@@H](C)c1nc2scc(C)c2c(=O)o1 the IC50 [6] was 560 nM.

With Cc1csc2nc([C@H](C)NC(=O)/C=C/c3ccccc3)oc(=O)c12 the PC50 (Human alphaherpesvirus 2 [10]) was 7.5 µM, the “K obs / 1” value (Human alphaherpesvirus 3) was 44000 M⁻¹ s⁻¹ and the CC50 (MRC5) was 56000 nM. The TC50 (Human alphaherpesvirus 2 [4]) was greater than 250000 nM, the IC50 [6] was 300 nM and the “K obs / 1” value (Human alphaherpesvirus 2 [8]) was 65000 M⁻¹ s⁻¹.

Cc1csc2nc([C@H](C)NC(=O)/C=C/c3c(F)cccc3F)oc(=O)c12 gave an IC50 [6] of 630 nM.

In the case of Cc1csc2nc([C@H](C)NC(=O)/C=C/c3ccc(N(C)C)cc3)oc(=O)c12, the IC50 [6] is reported as 570 nM.

Molecule Cc1csc2nc([C@H](C)NC(=O)/C=C(\Sc3ccccc3)c3ccccc3)oc(=O)c12 has an IC50 (Cytomegalovirus [11]) of 1900 nM and an IC50 (Human alphaherpesvirus 2 [12]) of 3100 nM.

Work on Cc1csc2nc([C@H](C)NC(=O)/C=C/c3cccc(Cl)c3)oc(=O)c12 yielded an IC50 [6] of 980 nM.

Molecule Cc1csc2nc([C@H](C)NC(=O)/C=C/c3cc(Br)cs3)oc(=O)c12 has an IC50 [6] of 190 nM.

In the case of Cc1csc2nc([C@H](C)NC(=O)/C=C/c3ccc([N+](=O)[O-])s3)oc(=O)c12, the IC50 [6] is reported as 570 nM.

Cc1csc2nc([C@H](C)NC(=O)C=C(c3ccccc3)c3ccccc3)oc(=O)c12 was tested, and the IC50 [6] was 500 nM.

Cc1ccccc1/C=C/C(=O)N[C@@H](C)c1nc2scc(C)c2c(=O)o1 gave an IC50 [6] of 1500 nM and an IC50 (Cytomegalovirus [7]) of 20000 nM.

Cc1csc2nc([C@H](C)NC(=O)/C=C/c3ccccc3[N+](=O)[O-])oc(=O)c12 showed an IC50 [6] of 720 nM.

With Cc1csc2nc([C@H](C)NC(=O)/C=C/c3ccnc4ccccc34)oc(=O)c12 the “K obs / 1” value (Human alphaherpesvirus 3) was 45000 M⁻¹ s⁻¹, the IC50 [6] was 250 nM and the “K obs / 1” value (Human alphaherpesvirus 2 [8]) was 76000 M⁻¹ s⁻¹.

For Cc1csc2nc([C@H](C)NC(=O)C=C(c3cccs3)c3cccs3)oc(=O)c12, the CC50 (MRC5) was 95000 nM, the TC50 (Human alphaherpesvirus 2 [4]) was 21000 nM and the PC50 (Human alphaherpesvirus 2 [5]) was “inactive”. The IC50 [6] was 110 nM and the “K obs / 1” value (Human alphaherpesvirus 2 [8]) was 120000 M⁻¹ s⁻¹.

With Cc1csc2nc([C@H](C)NC(=O)/C=C/c3ccc([N+](=O)[O-])cc3)oc(=O)c12 the IC50 [6] was 940 nM.

Work on Cc1ccsc1/C=C/C(=O)N[C@@H](C)c1nc2scc(C)c2c(=O)o1 yielded an IC50 [6] of 330 nM.

Cc1csc2nc([C@H](C)NC(=O)/C=C(\c3ccccc3)c3cccs3)oc(=O)c12 gave an IC50 [6] of 260 nM.

Work on Cc1csc2nc([C@H](C)NC(=O)/C=C/c3ccccn3)oc(=O)c12 yielded an IC50 [6] of 500 nM.

In the case of Cc1csc2nc([C@H](C)NC(=O)/C=C/c3ccc(Br)s3)oc(=O)c12, the “K obs / 1” value (Human alphaherpesvirus 3) is reported as 63000 M⁻¹ s⁻¹, the PC50 (Human alphaherpesvirus 2 [9]) is reported as 8 µM and the CC50 (MRC5) is reported as 83000 nM. The TC50 (Human alphaherpesvirus 2 [4]) was greater than 250000 nM, the IC50 [6] was 270 nM and the “K obs / 1” value (Human alphaherpesvirus 2 [8]) was 12000 M⁻¹ s⁻¹.

With COc1cc(/C=C/C(=O)N[C@@H](C)c2nc3scc(C)c3c(=O)o2)cc(OC)c1 the IC50 [6] was 350 nM.
